Experiments:
Granulozyten = assay: Granulocyte test (modified after Brandt), phagocytosis of yeast particles; assay type: cell-based; conditions: concentration range 10^-1 bis 10^-2 mg/ml
Excerpt: (§1) Die vorliegende Erfindung beruht auf dem erstmaligen Nachweis einer Immunstimulation durch 1,4-Naphthochinon-Derivate der angegebenen Art. Die Immunstimulation läßt sich experimentell in vitro und in vivo klar nachweisen. Als geeignete immunologische Testverfahren dienen der Carbon Clearance-Test (CCT)-RES-Funktion (Biozzi, G. Benacerraf, B. und Halpern, B.N., Br. J. Exp.Pathol. 34, 441 (1953)); der Granulocyten-Test gemäß Brandt, L., Scand.J.Haematol. Suppl. 2 (1967), der vorzugsweise in modifizierter Form angewandt wird; sowie eine Chemoluminenszenz-Messung nach Allen (Allen, R.C. in "Bioluminescence and Chemiluminescence; Basic Chemistry and Analytical Applications", Eds: De Luca und Mc Elroy, S. 63-73, Academie Press, New York, 1981).
In 20 ml Spritze 1 Tropfen Heparin (Thrombophob) und ca. 10 ml Blut abnehmen und mit 1,5% Dextran T 500 im Verhältnis 2:1 mischen. Kanüle auf der Spritz umbiegen und 30 Minuten bei 25°C absetzen lassen (ca. 2-3 ml Blut für Eigenserum abnehmen).
Den Überstand (Leukozytensuspension) in steriles Röhrchen überspritzen; 7 Minuten bei 500 U. zentrifugieren.
Überstand weggießen, Bodensatz (Leukozyten) 2 mal mit RPM I-Puffer bei 500 U. waschen.
Granulozyten mit ca. 5 ml Puffer auffüllen und Zellen auf 5 x 10 x 10^6 einstellen. […] Zellsuspension in 0,475 ml 3 % iger Essigsäure mischen. In Neubauerkammer 4 Quadrate auszählen (100 Zellen/Kammer). […]

[1] = system: polymorphkernigen Leucocyten (PMNL); assay: Chemiluminescence measurement (modified after Allen), zymosan-stimulated PMNL; assay type: cell-based; conditions: concentration range 10^-1 bis 10^-2 mg/ml
Excerpt: as §1
• a) PBS-Puffer ohne Ca^2+ und Mg^2+ (steril) (Fa. Biochrom, Berlin) • b) Veronal-gepufferte Kochsalzlösung mit Ca^2+, Mg^2+, Glucose und Albumin Stammlösung: 8.3 g NaCl, 1.02 g Natrium, 5,5-Diäthylbarbiturat (Veronal), 102 mg MgCl2, 22 mgCaCl2 in 150 ml H2O (bidest.) lösen, + 3.5 ml 1M IICL auf 200 ml mit H20 (bidest.) auffüllen. Von dieser Stammlösung werden 40 ml mit 140 ml H20 (bidest.) verdünnt, mit 1M HCL auf pH 7.0 eingestellt und mit II20 (bidest.) auf 200 ml auf gefüllt. […]

CC1=CC(=O)c2c(O)cccc2C1=O [Plumbagin]
effect on phagocytosis at higher concentrations (Granulozyten): ausgeprägte Phagocytosehemmung
effect at higher concentrations [1]: Phagocytosehemmung sowie eine Immunsuppression bzw. Cytotoxicität

Source: patent EP0173262A2, “Use of 1,4-naphthoquinone derivatives in a low concentration as immunostimulating agents” (Carnivora-Deutschland GmbH, priority 1984, dated 1986)
